Experimental data reported in US5753631A, “Intercellular adhesion mediators” (Cytel Corporation, priority 1995, dated 1998).
Read-outs that look alike come from different tables or passages of the source.

Experiments:
P-Selectin = target: T1, P-Selectin (Homo sapiens, UniProt P16109); experiment: Oligosaccharide/polysaccharide inhibition of neutrophil adhesion to thrombin activated platelets; format: cell-based; conditions: for IC50: read-out: AMOUNT REQUIRED FOR 50% INHIBITION (converted)
T1 construct: endogenous in cells
T1 sequence (P16109 42-830): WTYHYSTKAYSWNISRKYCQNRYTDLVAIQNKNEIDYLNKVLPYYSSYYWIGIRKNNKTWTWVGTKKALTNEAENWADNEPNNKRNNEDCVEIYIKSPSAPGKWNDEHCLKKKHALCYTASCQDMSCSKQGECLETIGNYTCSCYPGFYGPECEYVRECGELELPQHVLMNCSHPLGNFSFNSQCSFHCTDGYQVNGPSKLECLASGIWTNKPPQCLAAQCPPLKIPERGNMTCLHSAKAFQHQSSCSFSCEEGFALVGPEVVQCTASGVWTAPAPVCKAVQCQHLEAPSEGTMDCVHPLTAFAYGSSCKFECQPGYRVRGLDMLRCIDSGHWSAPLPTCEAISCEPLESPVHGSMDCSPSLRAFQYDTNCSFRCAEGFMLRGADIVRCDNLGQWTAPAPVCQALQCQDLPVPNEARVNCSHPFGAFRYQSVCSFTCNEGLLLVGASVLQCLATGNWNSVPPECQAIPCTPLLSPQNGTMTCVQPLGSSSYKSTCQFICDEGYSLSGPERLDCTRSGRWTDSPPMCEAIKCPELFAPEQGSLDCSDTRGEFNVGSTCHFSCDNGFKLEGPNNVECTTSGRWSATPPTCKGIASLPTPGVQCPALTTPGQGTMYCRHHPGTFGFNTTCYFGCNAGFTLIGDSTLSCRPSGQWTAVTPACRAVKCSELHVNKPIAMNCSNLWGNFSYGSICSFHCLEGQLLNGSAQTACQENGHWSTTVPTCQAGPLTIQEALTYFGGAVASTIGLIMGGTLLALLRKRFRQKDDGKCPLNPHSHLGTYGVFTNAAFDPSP
Procedure: (§1) Briefly, platelets and neutrophils were isolated by the methods described above. Platelets were activated with thrombin and then incubated with dilutions of various oligosaccharides. Neutrophils were added, and the effect of the saccharides on the adhesion of neutrophils to activated platelets was determined.
1. Platelets were isolated as described above and were activated (2×10^8 /ml) by incubation for 20 min at room temperature with thrombin at a final concentration of 0.25 U/ml.
2. Neutrophils were isolated by layering heparinized blood over Mono-Poly Resolving Medium (Ficoll-Hypaque-Flow Laboratories), followed by centrifugation for 25 min at 2000 rpm and then, a further 25 min at 2500 rpm as described above.
3. For the assay, 20 μl of the platelet suspension (2×10^8 /ml) was placed in a microcentrifuge tube. An equal volume of the oligosaccharide preparations at concentrations from 200 μg/ml to 0.3 μg/ml, or of glycolipid-liposome preparations (prepared as described above), at concentrations from 2 μg/ml to 0.25 μg/ml, was added and the tubes were allowed to stand at room temperature for 20 min. Twenty μl of the neutrophil preparation (2×10^6 /ml) was then added and the tubes were allowed to stand for a further 20 min at room temperature.
(§2) 4. Adhesion of activated platelets to the neutrophils was assessed microscopically. One hundred neutrophils were evaluated. They were scored as positive if 2 or more platelets were attached and negative if less than 2 platelets were bound. The percent of cells with 2 or more bound platelets was calculated.
as §1, with “added” for “added,”
Platelets were isolated as described above and were activated (2×10^8 /ml) by incubation for 20 min at room temperature with thrombin at a final concentration of 0.25 U/ml.
Neutrophils were isolated by layering heparinized blood over Mono-Poly Resolving Medium (Ficoll-Hypaque, Flow Laboratories), followed by centrifugation for 25 min at […] and then, a further 25 min at 2500 rpm as described above.
For the assay, 20 μl of the platelet suspension (2×10^8 /ml) was placed in an Eppendorf centrifuge tube. An equal volume of the oligosaccharide preparations at concentrations from 500 μg/ml to 2.0 μg/ml was added and the tubes were allowed to stand at room temperature for 20 min. Twenty […] of the neutrophil preparation (2×10^6 /ml) was then added and the tubes were allowed to stand for a further 20 min at room temperature.
as §2, with “Adhesion” for “4. Adhesion”

[1] = tested on: CVF-induced acute lung injury; experiment: Cobra venom factor (CVF)-induced acute lung injury in the rat; format: in vivo; conditions: in words; prior to CVF, 30 minutes
Procedure: Groups of rats were pretreated with either vehicle, SLN-OH (0.6 mg/Kg), or with SLX-OH (0.6 mg/Kg) 5 minutes prior to administration of either CVF or PBS. Each bar represents the mean of 6 animals and vertical lines represent the standard error of the mean.
Groups of rats were pretreated with either vehicle or Z at the indicated doses 5 minutes prior to administration of CVF or PBS. Each point represents the mean of 6 animals and vertical lines represent the standard error of the mean.
The intravenous injection of CVF produces intravascular complement activation which results in lung injury, defined as an increase in neutrophil accumulation within the lung, an increase in pulmonary vascular permeability and in lung hemorrhage. It is likely that intravascular complement activation results in the generation of a wide range of inflammatory mediators. Of particular relevance to the studies described here is generation of the split fifth complement component, C5a, which can stimulate the release of histamine from circulating basophils and tissue mast cells. […] The expression of selectins, including P-selectin, is a necessary first step in the process of leukocyte adherence to vascular endothelium.
Animals were dosed with different oligosaccharide preparations or phosphate buffered saline (PBS) five minutes before administration of cobra venom factor (20 units/Kg, i.v.). Included in this material was an aliquot of ^125 I-bovine serum albumin (0.5 μCi) and ^51 Cr labelled autologous red blood cells (0.5 μCi) for measuring plasma extravasation and hemorrhage respectively. Thirty minutes after administration of the cobra venom factor the animals were anesthetized with ketamine hydrochloride (10 mg/Kg) and exsanguinated via the posterior vena cava. The lung vasculature was then perfused through the right cardiac ventricle with 10 mL of PBS. The lungs were removed and the amount of radioactivity remaining within the tissue assessed with a gamma scintillation counter. Increased pulmonary vascular permeability was measured as the ratio of ^125 I in lung tissue compared with the amount present in 1 mL of venous blood obtained at the time of death. Lung hemorrhage was measured as the ratio of ^51 Cr in lung tissue compared with the amount present in 1 mL of venous blood obtained at the time of death. Neutrophil accumulation in lungs was determined by measuring the myeloperoxidase activity of lungs homogenized in PBS. Myeloperoxidase activity in lung supernatants was assayed by measuring the change in absorbance at 460 nm resulting from decomposition of H2 O2 in the presence of o-dianisidine

[2] = tested on: histamine induced leukocyte rolling in rat mesenteric venules; experiment: Histamine induced leukocyte rolling and adherence in rat mesenteric venules (intravital microscopy); format: in vivo, rat (male Sprague-Dawley)
Procedure: Surgical procedure. Sixty-four male Sprague-Dawley rats (200-250 g) were maintained on a purified laboratory diet and fasted for 24 hours prior to the experiment. The animals were initially anesthetized with pentobarbital (65 mg/kg body weight), then a tracheotomy was performed to facilitate breathing during the experiment. The right carotid artery was cannulated and systemic arterial pressure was measured with a Statham (Oxnard, Calif.) P23A pressure transducer connected to the carotid artery cannula. Systemic blood pressure and heart rate were continuously recorded with a Grass physiologic recorder (Grass Instruments, Massachusetts). The left jugular vein was also cannulated for drug administration and blood sample collection. After a midline abdominal incision a segment of the mid-jejunum was exteriorized. All exposed tissue was moistened with saline-soaked gauze to minimize evaporation and dehydration.
Intravital microscopy. Rats were placed in a supine position on an adjustable plexiglass microscope stage and the mesentery was draped over an optically clear coverslip that allowed for observation of a 2 cm^2 segment of tissue. The temperature of the pedestal was maintained at 37° C. with a constant temperature circulator (Fisher Scientific, model 80). A small rubber gasket (area=3.14 cm^2) was placed on the mesentery and the outside area of contact between the gasket and mesentery was sealed (to prevent leakage of superfusate from the ring) with a mixture of high vacuum grease (Dow Corning Corp., Midland, Mich.) and white petrolatum (E. Fougera & Co., Melville, N.Y.). Rectal and mesenteric temperatures were continuously monitored using an electrothermometer. The exposed bowel wall was covered with Saran Wrap (Dow Chemical Co., Indiana), and the mesenteric tissue within the gasket was suffused with warmed bicarbonate-buffered saline (BBS; pH 7.4) that was bubbled with a mixture of 5% O2; 5% CO2; 90% N2.
An inverted microscope (Nikon Optiphoto, Japan) with a ×40 objective lens (Nikon Optiphoto, Japan) and a ×10 eyepiece was used to observe the mesenteric microcirculation. The mesentery was transilluminated with a 12 V-100 W direct current-stabilized light source. A video camera (Hitachi, VK-C150, Japan) mounted on the microscope projected the image onto a color monitor (Sony, PVM-2030, Japan), and the images were recorded using a video cassette recorder (Panasonic, NV8950, Japan). A video time-date generator (Panasonic, WJ810, Japan) projected the time, date, and stopwatch function onto the monitor.
Single unbranched venules with diameters ranging between 25 μm and 35 μm and a length>150 μm were selected for study. Venular diameter (Dv) was measured either on- or off-line using a video image-shearing monitor (IPM, La Mesa, Calif.). The number of adherent leukocytes was determined off-line during playback of videotaped images. A leukocyte was considered to be adherent to venular endothelium if it remained stationary for a period equal to or greater than 30 seconds. Adherent cells were expressed as the number per 100 μm length of venule. The number of emigrated leukocytes was also determined off-line during playback of videotaped images. Ary interstitial leukocytes present in the mesentery at the onset of the experiment were subtracted from the total number of leukocytes that accumulated during the course of the experiment. Leukocyte emigration was expressed as the number per microscopic field (1.7×10^-2 mm^2) or 150 μm length of venule. Rolling leukocytes were defined as those white blood cells that moved at a velocity less than that of erythrocytes in the same stream. The flux of rolling leukocytes was determined as the number of rolling leukocytes which crossed a fixed point on the venule over a given period of time. Leukocyte rolling velocity was determined from the time required for a leukocyte to roll along a given distance of the venule.

[3] = Table 2, mean of three identical experiments

Compound: CC(=O)N[C@H]1[C@H](O[C@H]2[C@@H](O)[C@@H](CO)O[C@@H](O[C@H]3[C@H](O)[C@@H](O)C(O)O[C@@H]3CO)[C@@H]2O)O[C@H](CO)[C@@H](O)[C@@H]1O[C@@H]1O[C@H](CO)[C@H](O)[C@H](O)[C@H]1O[C@@H]1O[C@@H](C)[C@@H](O)[C@@H](O)[C@@H]1O (stereo partly drawn) [LNF I, reference compound]
- AMOUNT REQUIRED FOR 50% INHIBITION (P-Selectin; Table 6): No Inhibition

Compound: CC(=O)N[C@H]1[C@H](O[C@H]2[C@@H](O)[C@@H](CO)O[C@@H](O[C@H]3[C@H](O)[C@@H](O)C(O)O[C@@H]3CO)[C@@H]2O)O[C@H](CO)[C@@H](O[C@@H]2O[C@H](CO)[C@H](O)[C@H](O)[C@H]2O)[C@@H]1O[C@@H]1O[C@@H](C)[C@@H](O)[C@@H](O)[C@@H]1O (stereo partly drawn) [LNF III (Le^x), reference compound]
- IC50 (P-Selectin; Table 6): 41 µM

Compound: CC(=O)N[C@H]1C(O)O[C@H](CO)[C@@H](O[C@@H]2O[C@H](CO)[C@H](O)[C@H](O)[C@H]2O)[C@@H]1O[C@@H]1O[C@@H](C)[C@@H](O)[C@@H](O)[C@@H]1O (stereo partly drawn) [Le^x, reference compound]
- IC50 (P-Selectin; [3]): 43 µM

Compound: CC(=O)N[C@H]1[C@H]([C@H](O)[C@H](O)CO)O[C@@](O[C@H]2[C@@H](O)[C@@H](CO)O[C@@H](O[C@H]3[C@H](O)[C@@H](NC(C)=O)C(O)O[C@@H]3CO)[C@@H]2O)(C(=O)O)C[C@@H]1O (stereo partly drawn) [SLN-OH, sialyl-N-acetyllactosamine, reference compound]
- effect on CVF-induced permeability, hemorrhage, MPO / lung injury [1]: unaltered

Compound: CC(=O)N[C@H]1[C@H](O[C@@H]2[C@@H](O)[C@H](O)O[C@H](CO)[C@@H]2O)O[C@H](CO)[C@@H](O[C@@H]2O[C@H](CO)[C@H](O)[C@H](O[C@]3(C(=O)O)C[C@H](O)[C@@H](NC(C)=O)[C@H]([C@H](O)[C@H](O)CO)O3)[C@H]2O)[C@@H]1O[C@@H]1O[C@@H](C)[C@@H](O)[C@@H](O)[C@@H]1O [SLe^x (penta), NeuAcα2,3Galβ1,4-(Fucα1,3)GlcNacβ1,3Galβ]
- IC50 (P-Selectin; [3]): 2.2 µM

Compound: NCCc1c[nH]cn1 [histamine]
- Erythrocyte velocity ([2]; histamine 10^-5 M): 1.8 ± 0.4 mm/sec
- Leukocyte adherence ([2]; histamine 10^-5 M): 7.2 ± 1.1 per 100 μm
- Leukocyte emigration ([2]; histamine 10^-5 M): 2.5 ± 0.9 per field
- Venular diameter ([2]; histamine 10^-5 M): 30 ± 1 μm
- Wall shear rate ([2]; histamine 10^-5 M): 303 ± 64 s⁻¹
- number of rolling leukocytes, fold increase ([2]; histamine 10^-5 M): 10 -fold
- recruitment of rolling leukocytes, fold increase ([2]; histamine 10^-5 M): 5 -fold
- reduction of leukocyte rolling velocity ([2]; histamine 10^-5 M): 50%
- Erythrocyte velocity ([2]; histamine 10^-6 M): 2.4 ± 0.2 mm/sec
- Leukocyte adherence ([2]; histamine 10^-6 M): 4.8 ± 0.7 per 100 μm
- Leukocyte emigration ([2]; histamine 10^-6 M): 2.0 ± 0.7 per field
- Venular diameter ([2]; histamine 10^-6 M): 30 ± 1 μm
- Wall shear rate ([2]; histamine 10^-6 M): 401 ± 91 s⁻¹
- effect on number of adherent leukocytes ([2]; histamine 10^-6 M and 10^-5 M): Significant increases in the number of adherent leukocytes
- Erythrocyte velocity ([2]; histamine 10^-7 M): 2.8 ± 0.2 mm/sec
- Leukocyte adherence ([2]; histamine 10^-7 M): 2.8 ± 0.7 per 100 μm
- Leukocyte emigration ([2]; histamine 10^-7 M): 1.5 ± 0.7 per field
- Venular diameter ([2]; histamine 10^-7 M): 30 ± 1 μm
- Wall shear rate ([2]; histamine 10^-7 M): 476 ± 38 s⁻¹
